How the values were obtained:
[1] = target: TRRAP (UniProt Q9Y4A5); experiment: pIC50, kinobeads binding competition; conditions: cell material: Jurkat cells
Procedure, shortened: (§1)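 Jurkat cells were exposed alive to nine compound concentrations (top 30 μM, 1:4 steps) or vehicle for 60 min at 37 °C and then lysed. In a second format, nine concentrations (top 30 μM, 1:5 steps) were incubated for 60 min at 4 °C with Jurkat lysate or with a 1:1:1:1 lysate mix of HEK293, K-562, HepG2 and placenta. Proteins captured on Kinobeads were digested and quantified by TMT10 LC-MS/MS. pIC50 values were derived from logistic dose-response fits (R drc package) of fold changes relative to vehicle, in biological duplicates.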

[2] = target: TLK2 (UniProt Q86UE8); experiment: pIC50, kinobeads binding competition; conditions: cell material: Jurkat cells
Procedure, shortened: as §1

[3] = target: AKT1 (UniProt P31749); experiment: pIC50, kinobeads binding competition
Procedure, shortened: as §1

[4] = target: CAMK1D (UniProt Q8IU85); experiment: pIC50, kinobeads binding competition
Procedure, shortened: as §1

[5] = target: T1, NEK9 (UniProt Q8TD19); experiment: pIC50, competition of probe 3 labelling in live cells; conditions: cell material: Jurkat cells
T1 sequence (whole entry): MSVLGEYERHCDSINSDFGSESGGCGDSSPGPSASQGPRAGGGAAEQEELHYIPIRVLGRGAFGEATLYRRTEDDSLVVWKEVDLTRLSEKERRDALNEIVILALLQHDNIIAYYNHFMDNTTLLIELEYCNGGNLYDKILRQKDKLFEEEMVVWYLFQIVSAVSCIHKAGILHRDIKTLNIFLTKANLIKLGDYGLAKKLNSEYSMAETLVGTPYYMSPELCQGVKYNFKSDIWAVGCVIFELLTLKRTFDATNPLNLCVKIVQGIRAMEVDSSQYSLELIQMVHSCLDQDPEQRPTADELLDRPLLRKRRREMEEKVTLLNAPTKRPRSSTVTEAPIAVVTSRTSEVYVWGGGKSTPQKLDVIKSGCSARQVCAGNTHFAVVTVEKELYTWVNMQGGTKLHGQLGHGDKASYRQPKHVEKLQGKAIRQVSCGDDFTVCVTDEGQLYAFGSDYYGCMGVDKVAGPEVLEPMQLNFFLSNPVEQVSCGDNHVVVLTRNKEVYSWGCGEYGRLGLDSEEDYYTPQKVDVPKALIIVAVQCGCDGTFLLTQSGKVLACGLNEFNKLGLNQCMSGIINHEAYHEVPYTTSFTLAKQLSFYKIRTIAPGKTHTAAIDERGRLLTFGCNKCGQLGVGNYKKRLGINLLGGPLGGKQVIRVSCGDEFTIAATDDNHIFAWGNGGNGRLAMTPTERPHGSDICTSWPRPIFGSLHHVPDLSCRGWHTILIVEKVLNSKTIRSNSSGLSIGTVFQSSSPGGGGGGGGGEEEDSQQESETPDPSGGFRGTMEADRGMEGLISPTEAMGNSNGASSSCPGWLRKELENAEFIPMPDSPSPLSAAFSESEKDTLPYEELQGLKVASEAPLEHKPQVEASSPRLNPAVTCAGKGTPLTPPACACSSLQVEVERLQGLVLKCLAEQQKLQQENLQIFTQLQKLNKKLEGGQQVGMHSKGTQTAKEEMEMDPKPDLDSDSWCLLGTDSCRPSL

[6] = target: STK33 (UniProt Q9BYT3); experiment: as above; conditions: cell material: Jurkat cells
[7] = target: RPS6KA4 (UniProt O75676); experiment: as above; conditions: cell material: Jurkat cells
[8] = target: T2, IRAK4 (UniProt Q9NWZ3); experiment: as above; conditions: cell material: Jurkat cells
T2 sequence (whole entry): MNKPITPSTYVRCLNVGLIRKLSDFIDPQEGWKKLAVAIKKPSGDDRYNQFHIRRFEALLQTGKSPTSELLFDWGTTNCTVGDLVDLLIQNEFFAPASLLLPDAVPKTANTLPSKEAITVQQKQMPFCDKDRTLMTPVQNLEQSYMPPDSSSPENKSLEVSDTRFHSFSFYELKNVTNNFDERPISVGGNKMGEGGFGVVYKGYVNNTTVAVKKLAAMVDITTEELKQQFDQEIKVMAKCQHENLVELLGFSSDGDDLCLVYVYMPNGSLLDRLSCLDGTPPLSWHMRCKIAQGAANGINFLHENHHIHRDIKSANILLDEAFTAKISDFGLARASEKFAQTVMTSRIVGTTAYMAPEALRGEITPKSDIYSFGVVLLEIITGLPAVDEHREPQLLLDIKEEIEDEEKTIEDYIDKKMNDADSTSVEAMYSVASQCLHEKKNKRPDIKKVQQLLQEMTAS

[9] = target: UniProt O96017; experiment: as above; conditions: cell material: Jurkat cells
[10] = target: UniProt Q14289; experiment: as above; conditions: cell material: Jurkat cells
[11] = target: MAPK12 (UniProt P53778); experiment: as above; conditions: cell material: Jurkat cells
[12] = target: MGLL (UniProt Q99685); experiment: as above; conditions: cell material: Jurkat cells
Sequence of MGLL (Q99685 whole entry): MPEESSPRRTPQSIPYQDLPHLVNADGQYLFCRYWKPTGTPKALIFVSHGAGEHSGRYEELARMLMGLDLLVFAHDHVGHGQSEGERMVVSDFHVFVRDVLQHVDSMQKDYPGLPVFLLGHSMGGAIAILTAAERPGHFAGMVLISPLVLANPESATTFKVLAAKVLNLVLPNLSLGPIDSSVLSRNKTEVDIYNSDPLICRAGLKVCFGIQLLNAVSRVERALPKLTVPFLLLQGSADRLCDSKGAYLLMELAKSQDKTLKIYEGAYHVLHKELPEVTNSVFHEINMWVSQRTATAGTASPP

Sequence of AKT1 (P31749 whole entry): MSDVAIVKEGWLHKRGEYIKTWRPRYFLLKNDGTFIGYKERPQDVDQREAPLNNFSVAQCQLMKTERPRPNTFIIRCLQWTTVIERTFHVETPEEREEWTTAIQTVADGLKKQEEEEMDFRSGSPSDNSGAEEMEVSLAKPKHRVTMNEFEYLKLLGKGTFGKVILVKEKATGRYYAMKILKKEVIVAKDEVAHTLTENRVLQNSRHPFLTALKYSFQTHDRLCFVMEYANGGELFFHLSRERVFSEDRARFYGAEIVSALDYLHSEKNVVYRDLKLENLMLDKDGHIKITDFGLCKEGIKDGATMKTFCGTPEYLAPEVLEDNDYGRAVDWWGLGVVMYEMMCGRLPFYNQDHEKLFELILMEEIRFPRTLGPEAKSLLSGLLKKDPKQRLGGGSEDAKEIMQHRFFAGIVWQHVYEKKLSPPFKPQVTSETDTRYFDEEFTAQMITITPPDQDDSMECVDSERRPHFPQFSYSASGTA
Sequence of CAMK1D (Q8IU85 whole entry, looked up): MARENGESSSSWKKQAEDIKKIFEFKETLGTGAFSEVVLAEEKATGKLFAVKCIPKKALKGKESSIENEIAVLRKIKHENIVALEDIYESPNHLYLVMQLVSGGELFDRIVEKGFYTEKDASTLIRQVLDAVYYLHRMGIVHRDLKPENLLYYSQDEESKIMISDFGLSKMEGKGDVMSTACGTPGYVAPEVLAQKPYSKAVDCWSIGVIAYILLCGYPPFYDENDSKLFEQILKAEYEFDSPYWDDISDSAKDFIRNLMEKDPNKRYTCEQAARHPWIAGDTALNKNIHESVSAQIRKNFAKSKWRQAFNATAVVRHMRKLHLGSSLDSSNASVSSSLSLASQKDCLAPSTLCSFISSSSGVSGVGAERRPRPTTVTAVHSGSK
Sequence of MAPK12 (P53778 whole entry): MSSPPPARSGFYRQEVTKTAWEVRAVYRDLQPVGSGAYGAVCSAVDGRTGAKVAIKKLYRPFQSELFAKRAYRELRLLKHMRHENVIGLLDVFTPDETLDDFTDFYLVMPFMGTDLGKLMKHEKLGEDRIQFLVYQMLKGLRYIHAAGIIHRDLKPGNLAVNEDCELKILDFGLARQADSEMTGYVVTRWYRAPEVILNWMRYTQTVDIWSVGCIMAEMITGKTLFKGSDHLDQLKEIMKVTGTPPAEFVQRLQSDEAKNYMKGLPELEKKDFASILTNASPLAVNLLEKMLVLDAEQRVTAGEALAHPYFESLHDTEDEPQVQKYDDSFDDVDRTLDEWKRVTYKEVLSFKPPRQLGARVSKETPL
Sequence of UniProt Q14289 (Q14289 whole entry, looked up): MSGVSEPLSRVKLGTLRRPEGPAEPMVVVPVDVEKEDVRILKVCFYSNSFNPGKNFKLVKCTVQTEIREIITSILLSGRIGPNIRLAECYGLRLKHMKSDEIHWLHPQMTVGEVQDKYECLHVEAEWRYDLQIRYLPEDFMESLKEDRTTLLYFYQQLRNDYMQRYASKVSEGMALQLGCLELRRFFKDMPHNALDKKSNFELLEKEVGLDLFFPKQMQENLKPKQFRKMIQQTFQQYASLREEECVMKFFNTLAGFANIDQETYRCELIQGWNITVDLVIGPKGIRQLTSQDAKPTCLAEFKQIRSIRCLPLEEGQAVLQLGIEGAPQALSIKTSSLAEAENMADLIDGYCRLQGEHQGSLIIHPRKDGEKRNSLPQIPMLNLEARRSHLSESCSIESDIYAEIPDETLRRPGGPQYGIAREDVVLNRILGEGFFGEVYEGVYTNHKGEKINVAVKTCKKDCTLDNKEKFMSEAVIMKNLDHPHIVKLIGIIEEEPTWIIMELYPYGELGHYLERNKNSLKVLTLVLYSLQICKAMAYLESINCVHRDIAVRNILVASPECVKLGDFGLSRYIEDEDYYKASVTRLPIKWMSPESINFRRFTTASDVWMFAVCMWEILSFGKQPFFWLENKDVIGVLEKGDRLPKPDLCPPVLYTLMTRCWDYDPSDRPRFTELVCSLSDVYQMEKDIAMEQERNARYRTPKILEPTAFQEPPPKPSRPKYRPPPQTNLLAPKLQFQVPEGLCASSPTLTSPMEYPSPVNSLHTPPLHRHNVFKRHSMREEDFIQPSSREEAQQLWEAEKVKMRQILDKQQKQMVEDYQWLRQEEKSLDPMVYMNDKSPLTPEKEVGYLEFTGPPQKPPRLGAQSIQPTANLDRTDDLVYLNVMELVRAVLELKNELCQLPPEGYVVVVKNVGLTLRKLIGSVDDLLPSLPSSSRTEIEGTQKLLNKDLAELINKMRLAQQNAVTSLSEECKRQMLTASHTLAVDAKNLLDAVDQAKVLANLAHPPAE
Sequence of TLK2 (Q86UE8 whole entry, looked up): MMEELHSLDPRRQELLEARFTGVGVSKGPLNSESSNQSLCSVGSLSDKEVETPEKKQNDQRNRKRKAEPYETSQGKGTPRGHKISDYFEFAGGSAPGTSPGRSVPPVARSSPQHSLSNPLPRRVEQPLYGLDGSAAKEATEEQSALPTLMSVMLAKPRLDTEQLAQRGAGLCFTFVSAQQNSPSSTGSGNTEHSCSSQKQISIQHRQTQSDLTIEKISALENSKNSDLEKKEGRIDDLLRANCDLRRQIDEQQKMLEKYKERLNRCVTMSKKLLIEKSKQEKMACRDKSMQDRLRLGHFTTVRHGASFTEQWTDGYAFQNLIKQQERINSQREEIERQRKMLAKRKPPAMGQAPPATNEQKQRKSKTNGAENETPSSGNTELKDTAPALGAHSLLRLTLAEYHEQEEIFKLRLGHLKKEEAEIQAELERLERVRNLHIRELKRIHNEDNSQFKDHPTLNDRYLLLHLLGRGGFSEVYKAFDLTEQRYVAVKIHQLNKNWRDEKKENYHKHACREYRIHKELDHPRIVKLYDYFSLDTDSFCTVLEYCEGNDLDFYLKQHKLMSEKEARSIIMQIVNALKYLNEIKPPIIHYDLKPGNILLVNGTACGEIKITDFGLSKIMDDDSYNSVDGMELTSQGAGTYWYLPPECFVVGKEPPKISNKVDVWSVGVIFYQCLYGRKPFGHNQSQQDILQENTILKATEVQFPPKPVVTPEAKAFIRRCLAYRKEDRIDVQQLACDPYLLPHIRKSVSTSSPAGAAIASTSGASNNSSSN
Sequence of STK33 (Q9BYT3 whole entry, looked up): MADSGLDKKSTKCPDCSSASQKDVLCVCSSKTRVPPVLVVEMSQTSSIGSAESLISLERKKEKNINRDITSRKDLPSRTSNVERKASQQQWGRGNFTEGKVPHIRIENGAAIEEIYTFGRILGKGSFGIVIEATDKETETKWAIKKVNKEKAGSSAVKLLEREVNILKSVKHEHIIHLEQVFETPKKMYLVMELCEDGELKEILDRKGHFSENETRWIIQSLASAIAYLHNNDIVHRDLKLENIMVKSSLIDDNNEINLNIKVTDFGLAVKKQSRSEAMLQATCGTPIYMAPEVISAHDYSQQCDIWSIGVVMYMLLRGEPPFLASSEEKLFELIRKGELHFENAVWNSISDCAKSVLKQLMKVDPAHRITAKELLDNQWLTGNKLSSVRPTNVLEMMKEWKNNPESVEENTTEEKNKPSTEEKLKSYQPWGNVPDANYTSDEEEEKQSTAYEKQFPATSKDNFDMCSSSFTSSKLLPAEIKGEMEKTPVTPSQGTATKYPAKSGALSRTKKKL
Sequence of UniProt O96017 (O96017 whole entry): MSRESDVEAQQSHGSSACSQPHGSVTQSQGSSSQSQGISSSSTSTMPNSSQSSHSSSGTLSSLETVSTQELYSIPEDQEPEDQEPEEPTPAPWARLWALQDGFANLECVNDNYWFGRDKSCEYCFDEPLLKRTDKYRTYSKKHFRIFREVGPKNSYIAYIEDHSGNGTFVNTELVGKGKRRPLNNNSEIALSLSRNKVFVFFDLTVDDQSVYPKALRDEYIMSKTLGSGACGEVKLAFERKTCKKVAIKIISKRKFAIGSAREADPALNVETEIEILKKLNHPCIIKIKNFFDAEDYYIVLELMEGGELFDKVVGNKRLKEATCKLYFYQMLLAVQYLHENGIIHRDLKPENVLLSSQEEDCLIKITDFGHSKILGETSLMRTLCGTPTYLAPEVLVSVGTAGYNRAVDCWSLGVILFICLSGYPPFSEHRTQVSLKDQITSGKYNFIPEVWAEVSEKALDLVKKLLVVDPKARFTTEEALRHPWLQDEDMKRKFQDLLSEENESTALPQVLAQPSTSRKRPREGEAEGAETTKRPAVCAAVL

Row | SMILES | pIC50 [1] | pIC50 [2] | pIC50 ([3]; cell material: Jurkat cells) | pIC50 ([4]; cell material: Jurkat cells) | pIC50 ([4]; cell material: Jurkat lysate) | pIC50 [5] | pIC50 [6] | pIC50 [7] | pIC50 [8] | pIC50 [9] | pIC50 [10] | pIC50 [11] | pIC50 [12] | pIC50 ([3]; cell material: Jurkat lysate)
1 | C#CCNC(=O)c1cc(Nc2cc(C3CC3)[nH]n2)nc(N2CCN(Cc3ccc(S(=O)(=O)F)cc3)CC2)n1 | < 4.52 | < 4.52 | 4.92 | 5.94 | < 4.52 | – | – | – | – | – | – | – | – | –
2 | CC#CC(=O)Nc1ccc2ncnc(Nc3cccc(Br)c3)c2c1 [EKI-785] | – | – | – | – | – | < 4.52 | < 4.52 | < 4.52 | < 4.52 | < 4.52 | 4.62 | 4.64 | < 4.52 | –
3 | O=C(NCCNC(=O)c1cc(Nc2cc(C3CC3)[nH]n2)nc(N2CCN(Cc3ccc(S(=O)(=O)F)cc3)CC2)n1)OC1CC/C=C/CCC1 (stereo unspecified) | < 4.52 | < 4.52 | < 4.52 | 5.82 | – | – | – | – | – | – | – | – | – | < 4.52
4 | CCc1cnn2c(NCc3ccc[n+]([O-])c3)cc(N3CCCC[C@H]3CCO)nc12 [dinaciclib] | – | – | – | – | – | < 4.52 | < 4.52 | < 4.52 | < 4.52 | < 4.52 | < 4.52 | < 4.52 | < 4.52 | –
